Data as given in US20240100105A1, “BACTERIOPHAGE TREATMENT FOR ACNE AND BIOFILMS” (priority 2017, published 2024).

Assays:
[1] = tested on: P. granulosum clinical isolates 2004-8, 2004-4 and 2002-1; experiment: Spot/drop assay on clinical isolates of P. granulosum (2004-8, 2004-4 and 2002-1); assay type: cell-based; details: Clindamycin 1% gel ~10 μL; Erythromycin 20 μg/mL 5 μL, applied directly to bacterial lawn
Experimental: These bacterial strains show sensitivity to Clindamycin (1% gel, ˜10 μL) and Erythromycin (20 μg/mL, 5 μL) when the antibiotics are applied directly to a bacterial lawn of these strains, but are resistant to all the tested phage.

P. acnes PA1 biofilm = experiment: Efficacy of phage mixtures on P. acnes biofilm; assay type: cell-based, Propionibacterium acnes; details: for Remaining log bacteria after phage or antibiotic treatment of biofilm: phage 10^5 total PFU, Erythromycin 100 μg/mL
Experimental: To test our phage against P. acnes biofilms, the following experiment is performed on biofilms produced in the laboratory. An overnight culture of PA1 is diluted 1:1 with fresh BHIS and incubated for 4 hours at 37° C. after which the culture is once again diluted 1:1 this time with anacrobized BHIS supplemented with 1% glucose (final conc. 0.5%). Next, a 96-well plate (Thermo Fisher Scientific, Waltham, Massachusetts) is seeded with 200 μL of the diluted culture per well. The wells are sealed using 8-well strip caps (Thermo Fisher Scientific, Waltham, Massachusetts). This is incubated for 3 days to let the biofilm form. After 72 hours, 10 μL of either mixture 1 (PAP-12, PA1-9 and PA1-13), mixture 2 (PA7-1, PA1-9 and PA1-13), mixture 3 (PAP-12, PA1-9, PA1-13 and PS7-1) or 2 μL of Erythromycin is added to the relevant wells. The amount of phage added per mixture corresponds to 10^5 total PFU while for the antibiotic Erythromycin, a final concentration of 100 μg/mL (enough to inhibit PA1 growth when not in a biofilm) is used.
At 24 hrs or 48 hrs post-treatment depending on the wells, the medium is carefully removed from each well and the remaining biofilm is picked from each well into a separate Eppendorf tube using a sterile tip. At this point, 1 mL of fresh BHIS is added to the biofilm tubes, sonicated to remove the phage inside for 5 minutes (Elmasonic S 100, at 37 kHz) (Elma Schmidbauer GmbH (Singen, Germany), and centrifuged (4 min, 4000 rpm, 25° C.). The supernatant containing the phage is carefully removed to a clean tube for quantification and the process was repeated a total of 3 times to make sure all phage are removed.
To quantify the surviving bacteria, the pellet is re-suspended in 100 μL BHIS, 10-fold serially diluted in BHIS and plated on BHIS agar plates. The plates are incubated for 72 hrs at 37° C. anaerobically after which the colonies are counted and results rounded to the nearest log. In parallel, the phage quantities inside the biofilm are tested by taking the supernatant set aside earlier, and using the aforementioned plaque assay to assess the original quantities.

CC[C@H]1OC(=O)[C@H](C)[C@@H](O[C@H]2C[C@@](C)(OC)[C@@H](O)[C@H](C)O2)[C@H](C)[C@@H](O[C@@H]2O[C@H](C)C[C@H](N(C)C)[C@H]2O)[C@](C)(O)C[C@@H](C)C(=O)[C@H](C)[C@@H](O)[C@]1(C)O [Erythromycin]
response of P. granulosum isolates to antibiotics [1]: sensitivity
Remaining log bacteria after phage or antibiotic treatment of biofilm (P. acnes PA1 biofilm; 24 hours post treatment): More than 9 Logs CFU
Remaining log bacteria after phage or antibiotic treatment of biofilm (P. acnes PA1 biofilm; 48 hours post treatment): 8 Logs CFU
decrease in bacterial counts in biofilm (P. acnes PA1 biofilm; after 24 hours): no visible decrease
remaining bacteria per milliliter (P. acnes PA1 biofilm; after 48 hours): 8 logs
